Results: publication PMC7115582 (European Journal of Medicinal Chemistry, 2018)

Test system: lentiviral pseudoparticles carrying H1-HA and N1-NA (from A/PR/8/34)
Assay type: cell-based, influenza A virus
Conditions: control compounds; MDCK cells; Fig. 3

Row | Compound | inhibition of pseudoparticle entry, in words
1 | CC(C)c1ccccc1NCCN1CCCCC1.Cl [Compound 80] | Strong and dose-dependent inhibition
2 | CCc1ccccc1OCCN1CCCCCC1 [Compound 81] | Strong and dose-dependent inhibition
3 | COC(=O)[C@@H]1NC(=O)[C@@H]2NC(=O)[C@H](NC(=O)[C@@H]3NC(=O)[C@H]4NC(=O)[C@H](NC(=O)[C@H](Nc5c(NCc6ccc(-c7ccccc7)cc6)c(=O)c5=O)c5ccc(O)c(c5)Oc5cc4cc(O)c5C)[C@H](O)c4ccc(cc4)Oc4cc3cc(c4O)Oc3ccc(cc3)[C@H]2O)c2ccc(O)c(c2)-c2c(O)cc(O)cc21 [SA-19] | Strong and dose-dependent inhibition
4 | CCN(CC)CCCC(C)Nc1ccnc2cc(Cl)ccc12 (stereo not shown) [chloroquine] | Strong and dose-dependent inhibition
